Source: ChEMBL document CHEMBL1201862, “PubChem BioAssay data set” (2004)
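Protocol summary: plate cells (96-well), add compound at 5 concentrations, incubate 48 h, interpolate endpoints linearly. GI50: concentration for 50% inhibition of growth.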 Calls of active or inactive are those of the source. Rule as the data show it: active = GI50 up to about 1.1 µM and inactive = higher.

Legend:
Test in all cases: NCI anticancer screen, dose series, 48 h
RXF 393 = tested on: RXF 393
SK-MEL-2 = tested on: SK-MEL-2
SW-620 = tested on: SW-620
MCF7 = tested on: MCF7
CCRF-CEM = tested on: CCRF-CEM
SK-MEL-28 = tested on: SK-MEL-28
A549 = tested on: A549
HT-29 = tested on: HT-29
SNB-75 = tested on: SNB-75
Hs-578T = tested on: Hs-578T
NCI-H460 = tested on: NCI-H460
T47D = tested on: T47D
NCI-H23 = tested on: NCI-H23
SK-OV-3 = tested on: SK-OV-3
K562 = tested on: K562
IGROV-1 = tested on: IGROV-1
SR = tested on: SR
CAKI-1 = tested on: CAKI-1
HOP-62 = tested on: HOP-62
LOX IMVI = tested on: LOX IMVI
MOLT-4 = tested on: MOLT-4
OVCAR-4 = tested on: OVCAR-4
PC-3 = tested on: PC-3
COLO 205 = tested on: COLO 205
NCI-H522 = tested on: NCI-H522
OVCAR-8 = tested on: OVCAR-8
NCI/ADR-RES = tested on: NCI/ADR-RES
TK-10 = tested on: TK-10
DU-145 = tested on: DU-145
UACC-62 = tested on: UACC-62
NCI-H226 = tested on: NCI-H226
U-251 = tested on: U-251
SF-295 = tested on: SF-295
A498 = tested on: A498
SF-539 = tested on: SF-539
HL-60 = tested on: HL-60
OVCAR-5 = tested on: OVCAR-5
EKVX = tested on: EKVX
SK-MEL-5 = tested on: SK-MEL-5
MDA-N = tested on: MDA-N
HCC 2998 = tested on: HCC 2998
UACC-257 = tested on: UACC-257
UO-31 = tested on: UO-31
786-0 = tested on: 786-0
HCT-15 = tested on: HCT-15
RPMI-8226 = tested on: RPMI-8226
M14 = tested on: M14
Malme-3M = tested on: Malme-3M
KM12 = tested on: KM12
HOP-92 = tested on: HOP-92
OVCAR-3 = tested on: OVCAR-3
MDA-MB-435 = tested on: MDA-MB-435
SNB-19 = tested on: SNB-19
ACHN = tested on: ACHN
MDA-MB-231 = tested on: MDA-MB-231
SF-268 = tested on: SF-268
SN12C = tested on: SN12C
HCT-116 = tested on: HCT-116

## COC(=O)[C@@H]1OC(C)(c2ccccc2)O[C@H]1C(=O)OC
RXF 393
  GI50: > 100 µM (inactive)
SK-MEL-2
  GI50: > 100 µM (inactive)
SW-620
  GI50: > 100 µM (inactive)
MCF7
  GI50: > 100 µM (inactive)
CCRF-CEM
  GI50: 48.1 µM (inactive)
SK-MEL-28
  GI50: > 100 µM (inactive)
A549
  GI50: > 100 µM (inactive)
HT-29
  GI50: > 100 µM (inactive)
SNB-75
  GI50: > 100 µM (inactive)
Hs-578T
  GI50: > 100 µM (inactive)
NCI-H460
  GI50: > 100 µM (inactive)
T47D
  GI50: > 100 µM (inactive)
NCI-H23
  GI50: > 100 µM (inactive)
SK-OV-3
  GI50: > 100 µM (inactive)
K562
  GI50: > 100 µM (inactive)
IGROV-1
  GI50: > 100 µM (inactive)
SR
  GI50: > 100 µM (inactive)
CAKI-1
  GI50: > 100 µM (inactive)
HOP-62
  GI50: > 100 µM (inactive)
LOX IMVI
  GI50: > 100 µM (inactive)
MOLT-4
  GI50: > 100 µM (inactive)
OVCAR-4
  GI50: > 100 µM (inactive)
PC-3
  GI50: > 100 µM (inactive)
COLO 205
  GI50: > 100 µM (inactive)
NCI-H522
  GI50: > 100 µM (inactive)
OVCAR-8
  GI50: > 100 µM (inactive)
NCI/ADR-RES
  GI50: > 100 µM (inactive)
TK-10
  GI50: > 100 µM (inactive)
DU-145
  GI50: > 100 µM (inactive)
UACC-62
  GI50: > 100 µM (inactive)
NCI-H226
  GI50: > 100 µM (inactive)
U-251
  GI50: > 100 µM (inactive)
SF-295
  GI50: > 100 µM (inactive)
A498
  GI50: > 100 µM (inactive)
SF-539
  GI50: > 100 µM (inactive)
HL-60
  GI50: 4.52 µM (inactive)
OVCAR-5
  GI50: > 100 µM (inactive)
EKVX
  GI50: > 100 µM (inactive)
SK-MEL-5
  GI50: > 100 µM (inactive)
MDA-N
  GI50: > 100 µM (inactive)
HCC 2998
  GI50: 76.4 µM (inactive)
UACC-257
  GI50: > 100 µM (inactive)
UO-31
  GI50: > 100 µM (inactive)
786-0
  GI50: > 100 µM (inactive)
HCT-15
  GI50: > 100 µM
RPMI-8226
  GI50: > 100 µM (inactive)
M14
  GI50: > 100 µM (inactive)
Malme-3M
  GI50: > 100 µM (inactive)
KM12
  GI50: > 100 µM (inactive)
HOP-92
  GI50: > 100 µM (inactive)
OVCAR-3
  GI50: > 100 µM (inactive)
MDA-MB-435
  GI50: > 100 µM (inactive)
SNB-19
  GI50: > 100 µM (inactive)
ACHN
  GI50: > 100 µM (inactive)
MDA-MB-231
  GI50: > 100 µM (inactive)
SF-268
  GI50: > 100 µM (inactive)

## CC(C)(C)[Si](C)(C)OCC1OC(n2cnc3c(=O)[nH]cnc32)CC1O (centres undefined)
RXF 393
  GI50: > 100 µM (inactive)
SK-MEL-2
  GI50: > 100 µM (inactive)
SW-620
  GI50: > 100 µM (inactive)
MCF7
  GI50: > 100 µM (inactive)
CCRF-CEM
  GI50: > 100 µM (inactive)
SK-MEL-28
  GI50: > 100 µM (inactive)
A549
  GI50: > 100 µM (inactive)
HT-29
  GI50: > 100 µM (inactive)
SNB-75
  GI50: 20.8 µM (inactive)
Hs-578T
  GI50: > 100 µM (inactive)
NCI-H460
  GI50: > 100 µM (inactive)
T47D
  GI50: > 100 µM (inactive)
NCI-H23
  GI50: > 100 µM (inactive)
SK-OV-3
  GI50: > 100 µM (inactive)
K562
  GI50: > 100 µM (inactive)
IGROV-1
  GI50: > 100 µM (inactive)
SR
  GI50: > 100 µM (inactive)
CAKI-1
  GI50: > 100 µM (inactive)
HOP-62
  GI50: > 100 µM (inactive)
LOX IMVI
  GI50: > 100 µM (inactive)
MOLT-4
  GI50: > 100 µM (inactive)
OVCAR-4
  GI50: > 100 µM (inactive)
PC-3
  GI50: > 100 µM (inactive)
COLO 205
  GI50: > 100 µM (inactive)
NCI-H522
  GI50: > 100 µM (inactive)
OVCAR-8
  GI50: > 100 µM (inactive)
NCI/ADR-RES
  GI50: > 100 µM (inactive)
TK-10
  GI50: > 100 µM (inactive)
DU-145
  GI50: > 100 µM (inactive)
UACC-62
  GI50: > 100 µM (inactive)
NCI-H226
  GI50: > 100 µM (inactive)
U-251
  GI50: > 100 µM (inactive)
SF-295
  GI50: > 100 µM (inactive)
A498
  GI50: > 100 µM (inactive)
SF-539
  GI50: > 100 µM (inactive)
HL-60
  GI50: > 100 µM (inactive)
OVCAR-5
  GI50: > 100 µM (inactive)
EKVX
  GI50: > 100 µM (inactive)
SK-MEL-5
  GI50: 60.5 µM (inactive)
MDA-N
  GI50: > 100 µM (inactive)
SN12C
  GI50: > 100 µM (inactive)
HCT-116
  GI50: > 100 µM (inactive)
HCC 2998
  GI50: > 100 µM (inactive)
UACC-257
  GI50: > 100 µM (inactive)
UO-31
  GI50: > 100 µM (inactive)
786-0
  GI50: > 100 µM (inactive)
HCT-15
  GI50: > 100 µM
RPMI-8226
  GI50: > 100 µM (inactive)
M14
  GI50: > 100 µM (inactive)
Malme-3M
  GI50: > 100 µM (inactive)
KM12
  GI50: > 100 µM (inactive)
HOP-92
  GI50: > 100 µM (inactive)
OVCAR-3
  GI50: > 100 µM (inactive)
MDA-MB-435
  GI50: > 100 µM (inactive)
SNB-19
  GI50: > 100 µM (inactive)
ACHN
  GI50: > 100 µM (inactive)
MDA-MB-231
  GI50: > 100 µM (inactive)
SF-268
  GI50: > 100 µM (inactive)
